According to patent publication US8889683B2, “Substituted quinoxalines as inhibitors of fatty acid binding protein” (Merck Sharp & Dohme Corp., priority 2010, dated 2014):
pKd: −log10 of the molar value.

Molecular target: FABP4 (Homo sapiens, UniProt P15090)
Test: TdF-based ligand binding affinity (FABP inhibitory activity assay)
Conditions: TdF-based ligand binding affinity constant
Source text: Theoretical basis for TdF-based ligand binding affinity constant
The derivation of TdF-based ligand binding affinity constant (Kd) followed closely those previously formulated by Brandts and Lin, Biochemistry 29 (1990) 6927-6940. In brief, the binding constant of the ligand at the Tm is expressed as below: […]
where T0 is the midpoint of unfolding for unliganded protein and Tm is the midpoint of unfolding in presence of ligand. [LTm] is free ligand at Tm. The ΔHu and ΔCpu are the enthalpy of unfolding and heat capacity change of unfolding for the protein respectively. The ΔCPu is proportional to the size of protein and is an approximate quantity in the above equation (empirically, ΔCpu=(MW of protein/115)*14 cal/mol*K). Following algorithm derived by Mayhood et al, (Analytical Biochemistry 345 (2005) 187-197), the T0 and ΔHu can be determined separately from nonlinear regression fitting the temperature dependent protein alone curve to the following equation: […]
The nonlinear regression fitting in general readily reaches convergence by properly constraining the initial values for the fitting parameters (e.g. the initial “guess” for the ΔHu was constrained to 120 kcal/mol; initial Yn and mr, were set to 1 and zero to best represent the melting curve along the low temperature region; negative slope of −0.5 was initially chosen for mu; initial Tm was also constrained to 50° C.).
(see Brandts et al and Mayhood et al, shown above) where ΔHL (T) is the van't Hoff enthalpy of ligand binding at temperature T and ΔCpL is the heat capacity upon ligand binding. For simplicity, the ΔCpL and ΔHL (T) were set to zero and −7 kcal/mol respectively. (The ΔCpL accounts for minimal portion of total protein-ligand binding energetics and is therefore set to zero (For example, see Hossein Naghibi et al, Proc. Natl. Acad. Sci. 92, 5597-5599 (1995), where ΔCpL was estimated to ˜2% of ΔHL at 25° C. obtained from calorimetric study of binding RNase A and 2′-CMP)).

Sequence of FABP4 (P15090 whole entry): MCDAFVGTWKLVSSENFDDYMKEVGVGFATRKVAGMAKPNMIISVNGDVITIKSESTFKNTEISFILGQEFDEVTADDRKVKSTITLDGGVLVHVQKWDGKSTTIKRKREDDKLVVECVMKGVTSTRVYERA

Compound | pKd
CCC(c1ccccc1)C1CCCN1C(=O)c1nc2ccccc2nc1O (racemic) [Compound 1-48, (+/−)-(3-Hydroxyquinoxalin-2-yl)[2-(1-phenylpropyl)pyrrolidin-1-yl]methanone] | 4.93
COc1ccc2nc(O)c(C(=O)N3CCCC3Cc3cccc(Cl)c3)nc2c1 (racemic) [Compound 1-27, (+/−)-[2-(3-Chlorobenzyl)pyrrolidin-1-yl](3-hydroxy-7-methoxyquinoxalin-2-yl)methanone] | 5.31
O=C(c1nc2ccccc2nc1O)N1CCCC[C@H]1Cc1cccc(Cl)c1 [Compound 7-8, (S)-(2-(3-chlorobenzyl)piperidin-1-yl)(3-hydroxyquinoxalin-2-yl)methanone] | 5.92
O=C(c1nc2ccccc2nc1O)N1CCCC1Cc1cccc(F)c1 (racemic) [Compound 1-51, (+/−)-[2-(3-Fluorobenzyl)pyrrolidin-1-yl](3-hydroxyquinoxalin-2-yl)methanone] | 5.74
O=C(c1nc2cccnc2nc1O)N1CCCC1Cc1cccc(Cl)c1 (racemic) [Compound 1-33, (+/−)-[2-(3-Chlorobenzyl)pyrrolidin-1-yl](3-hydroxypyrido[3,2-b]pyrazin-2-yl)methanone] | 6.22
O=C(c1nc2ccccc2nc1O)N1CCCC1Cc1cccc(Cl)c1 (stereo not shown) [Compound 1-99] | 6.02
Cc1ccc(CC2CCCN2C(=O)c2nc3ccccc3nc2O)cc1 (stereo not shown) [Compound 1-117] | 5.01
CCCN(CC1CC1)C(=O)c1nc2ccccc2nc1O [Compound 1-137] | 4.51
O=C(c1nc2ccc(C(F)(F)F)cc2nc1O)N1CCCC1Cc1ccc(Cl)c(Cl)c1 (stereo not shown) [Compound 1-164] | 6.26
O=C(c1nc2ccccc2nc1O)N1CCCC(Cc2cccc(F)c2)C1 (racemic) [Compound 1-86, (+/−)-[3-(3-Fluorobenzyl)piperidin-1-yl](3-hydroxyquinoxalin-2-yl)methanone] | 5.07
COc1ccccc1CC1CCCCN1C(=O)c1nc2ccccc2nc1O (racemic) [Compound 1-73, (+/−)-(3-Hydroxyquinoxalin-2-yl)[2-(2-methoxybenzyl)piperidin-1-yl]methanone] | 5.65
O=C(c1nc2ccccc2nc1O)N1CCCCC1Cc1ccccc1 (racemic) [Compound 1-72, (+/−)-(2-Benzylpiperidin-1-yl)(3-hydroxyquinoxalin-2-yl)methanone] | 4.85
COc1ccc(CC2CCCCN2C(=O)c2nc3ccccc3nc2O)cc1 (racemic) [Compound 1-80, (+/−)-(3-Hydroxyquinoxalin-2-yl)[2-(4-methoxybenzyl)piperidin-1-yl]methanone] | 5.32
O=C(c1nc2cc(S(=O)(=O)C(F)(F)F)ccc2nc1O)N1CCCC1Cc1cccc(Cl)c1 (racemic) [Compound 1-24, (+/−)-[2-(3-Chlorobenzyl)pyrrolidin-1-yl][3-hydroxy-7-(trifluoromethylsulfonyl)quinoxalin-2-yl]methanone] | 6.52
O=C(c1nc2cc(Br)ccc2nc1O)N1CCCC1Cc1cccc(Cl)c1 (racemic) [Compound 1-37, (+/−)-(7-Bromo-3-hydroxyquinoxalin-2-yl)[2-(3-chlorobenzyl)pyrrolidin-1-yl]methanone] | 6.07
O=C(c1nc2ccccc2nc1O)N1CCCCC1Cc1cccc(C(F)(F)F)c1 (racemic) [Compound 1-75, (+/−)-(3-Hydroxyquinoxalin-2-yl) {2-[3-(trifluoromethyl)benzyl]piperidin-1-yl}methanone] | 6.01
CC(C)CN(C)C(=O)c1nc2ccccc2nc1O [Compound 1-140] | 4.63
O=C(c1nc2ccccc2nc1O)N1CCC[C@H]1CNc1ccccc1 [Compound 1-65, (S)-(3-Hydroxyquinoxalin-2-yl){2-[(phenylamino)methyl]pyrrolidin-1-yl}methanone] | 4.64

Further lines, results first:

pKd | Compound
6.52 | O=C(c1nc2ccccc2nc1O)N1CCC[C@H]1Cc1cccc(Cl)c1 [Compound 8-8, (S)-(2-(3-chlorobenzyl)pyrrolidin-1-yl)(3-hydroxyquinoxalin-2-yl)methanone]
6.70 | O=C(c1nc2ccc(C(F)(F)F)cc2nc1O)N1CCCC1Cc1cccc(Cl)c1 (racemic) [Compound 1-39, (+/−)-[2-(3-Chlorobenzyl)pyrrolidin-1-yl][3-hydroxy-6-(trifluoromethyl)quinoxalin-2-yl]methanone]
7.66 | O=C(c1nc2cccc(Cl)c2nc1O)N1CCCC1Cc1cccc(F)c1 (stereo not shown) [Compound 1-161]
6.66 | O=C(c1nc2ccc(OC(F)(F)F)cc2nc1O)N1CCCC1Cc1cccc(Cl)c1 (racemic) [Compound 1-21, (+/−)-[2-(3-Chlorobenzyl)pyrrolidin-1-yl][3-hydroxy-6-(trifluoromethoxy)quinoxalin-2-yl]methanone]
6.61 | O=C(c1nc2cc(Cl)c(Cl)cc2nc1O)N1CCCC1CC1CCCCC1 (stereo not shown) [Compound 1-165]
8.70 | O=C(c1nc2ccc(C(F)(F)F)cc2nc1O)N1CCCC1Cc1cccc(F)c1 (stereo not shown) [Compound 1-163]
6.96 | O=C(c1nc2c(Cl)cccc2nc1O)N1CCCC1Cc1cccc(Cl)c1 (racemic) [Compound 1-8, (+/−)-(8-Chloro-3-hydroxyquinoxalin-2-yl)[2-(3-chlorobenzyl)pyrrolidin-1-yl]methanone]
7.00 | O=C(c1nc2ccc(S(=O)(=O)C(F)(F)F)cc2nc1O)N1CCCC1Cc1cccc(Cl)c1 (racemic) [Compound 1-25, (+/−)-[2-(3-Chlorobenzyl)pyrrolidin-1-yl][3-hydroxy-6-(trifluoromethylsulfonyl)quinoxalin-2-yl]methanone]
6.60 | O=C(c1nc2ccccc2nc1O)N1CCC[C@H]1Cc1cc(Cl)cc(Cl)c1 [Compound 8-6, (S)-(2-(3,5-dichlorobenzyl)pyrrolidin-1-yl)(3-hydroxyquinoxalin-2-yl)methanone]
7.10 | O=C(c1nc2cc(F)c(F)cc2nc1O)N1CCCC1Cc1cccc(Cl)c1 (racemic) [Compound 1-2, (+/−)-[2-(3-chlorobenzyl)pyrrolidin-1-yl](6,7-difluoro-3-hydroxyquinoxalin-2-yl)methanone]
8.52 | O=C(c1nc2cccc(Cl)c2nc1O)N1CCCC1Cc1cccc(Cl)c1 (racemic) [Compound 1-11, (+/−)-(5-Chloro-3-hydroxyquinoxalin-2-yl)[2-(3-chlorobenzyl)pyrrolidin-1-yl]methanone]
7.20 | O=C(c1nc2cc(Cl)c(Cl)cc2nc1O)N1CCCC1Cc1cccc(Cl)c1 (racemic) [Compound 1-13, (+/−)-[2-(3-Chlorobenzyl)pyrrolidin-1-yl](6,7-dichloro-3-hydroxyquinoxalin-2-yl)methanone]

Molecular target: FABP5 (Homo sapiens, UniProt Q01469)
Sequence (Q01469 whole entry): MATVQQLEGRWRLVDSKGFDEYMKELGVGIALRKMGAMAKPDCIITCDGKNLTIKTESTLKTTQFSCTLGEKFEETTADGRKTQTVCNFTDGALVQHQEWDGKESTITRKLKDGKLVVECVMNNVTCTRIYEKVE
Test: FABP5 TdCD binding affinity
Conditions: not given

pKd | Compound
6.30 | O=C(c1nc2ccccc2nc1O)N1CCC[C@H]1Cc1cccc(Cl)c1 [Compound 8-8, (S)-(2-(3-chlorobenzyl)pyrrolidin-1-yl)(3-hydroxyquinoxalin-2-yl)methanone]
